Test results reported in patent US7632829B2, “Diazepan derivatives” (Hoffmann-La Roche Inc., priority 2006, dated 2009).

Assays:
CCR2 = biological target: T1, CCR2 (Homo sapiens, UniProt P41597); test: Chemotaxis assay (THP1-4x cells, migration towards 10 nM MCP-1); type: cell-based; conditions: inhibition of specific migration towards MCP-1
T1 construct: endogenous in cells; host or cells: THP1-4x cells
T1 sequence (P41597 1-360 isoform P41597-2): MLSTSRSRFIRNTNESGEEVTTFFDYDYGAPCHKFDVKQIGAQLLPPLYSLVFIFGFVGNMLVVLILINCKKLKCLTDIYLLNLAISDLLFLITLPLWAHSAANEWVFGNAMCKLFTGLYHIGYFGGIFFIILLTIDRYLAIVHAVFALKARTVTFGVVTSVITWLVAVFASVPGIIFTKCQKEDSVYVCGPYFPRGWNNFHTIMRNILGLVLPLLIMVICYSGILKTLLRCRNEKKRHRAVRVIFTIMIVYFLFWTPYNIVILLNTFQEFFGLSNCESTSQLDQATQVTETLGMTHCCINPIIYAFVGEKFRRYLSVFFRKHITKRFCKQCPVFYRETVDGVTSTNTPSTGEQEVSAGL
Method: The chemotaxis assay was performed with THP1-4x cells (Mirzadegan et al. 2000, The Journal of Biological Chemistry 275, 33, 25562-25571) similar as described earlier (Kruszynski et al. 2005, Journal of Peptide Science, in press.).
THP1-4x were cultured in RPMI1640, 2 mM L-glutamine, 0.15% Na-bicarbonat, 0.25% D-glucose, 10 mM Hepes, […] Na-pyruvate, […] β-mercaptoethanol, 10% FBS. Isolated cells were labelled in culture medium with 2.5 μg/ml calcein-AM (Molecular Probes) for 60 minutes at 37° C. Excess calcein was removed and cells were washed in D-PBS^++, 2% FBS.
Cells (1×10^5) with or without various concentrations of test compounds were loaded on the top of 8-μm polycarbonate filter in a 96-well-modified Boyden chamber (NeuroProbe). Beneath the filter 10 nM MCP-1 (R&D Systems; Roche) with or without test compounds or D-PBS^++, 2% FBS was placed in the corresponding well. The closed chambers were incubated for 1 hour at 37° C., 5% CO2. Remaining cells in the top compartment were wiped off and migrated cells were measured as fluorescence in the bottom compartment in a FLUOstar (Galaxy BMG) at 485 nm excitation and 530 nm emission. Specific migration is defined as total migration towards MCP-1 minus the background migration towards D-PBS^++, 2% FBS. The ability of test compounds to antagonize CCR2-chemotaxis is reported as concentration required to inhibit 50% of specific migration (IC50) towards MCP-1.

[1] = biological target: T2, human chemokine receptor 2 isoform B (Homo sapiens, UniProt P41597); test: Calcium mobilization assay (FLIPR, CHOK1-CCR2B-A5 cells, 20 nM MCP-1); type: cell-based; conditions: Ca mobilisation assay, CCR2, antagonist activity vs 20 nM MCP-1
T2 construct: host or cells: CHOK1-CCR2B-A5 (CHO-K1)
T2 sequence (P41597 1-360 isoform P41597-2): T1 sequence (P41597 1-360 isoform P41597-2)
Outline: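 Antagonism read as IC50 against 20 nM MCP-1-evoked calcium rise (peak minus baseline Fluo-4 signal, FLIPR) in CCR2B-overexpressing CHO-K1 cells. Compounds were preincubated 20-30 min at 30 °C, with agonist activity recorded for 80 s on addition.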

| Compound | IC50 (CCR2) | IC50 [1] |
| --- | --- | --- |
| O=C(/C=C/c1ccc(Cl)c(Cl)c1)N1CCC(=O)N(CCN2CCCC2)CC1 [Example 160, 1-[(E)-3-(3,4-Dichloro-phenyl)-acryloyl]-4-(2-pyrrolidin-1-yl-ethyl)-[1,4]diazepan-5-one] | 101 nM | 232 nM |
| O=C(/C=C/c1ccc(Cl)c(Cl)c1)N1CCC(=O)N(CCN2CCC(O)(c3cccnc3)CC2)CC1 [Example 99, 1-[(E)-3-(3,4-Dichloro-phenyl)-acryloyl]-4-[3-(4′-hydroxy-3′,4′,5′,6′-tetrahydro-2′H-[3,4′]bipyridinyl-1′-yl)-ethyl]-[1,4]diazepan-5-one] | – | 1220 nM |
| COC(=O)N(C)C1CCN(CCCCN2CCN(C(=O)/C=C/c3ccc(F)c(Cl)c3)CCC2=O)CC1 [Example 402] | – | 291 nM |

Now those with a lower IC50 [1], led by results:

| IC50 (CCR2) | IC50 [1] | Compound |
| --- | --- | --- |
| 71 nM | 204 nM | O=C(/C=C/c1ccc(Cl)c(Cl)c1)N1CCC(=O)N(CCCN2CCCC(O)C2)CC1 (racemic) [Example 81, (+/−)-1-[(E)-3-(3,4-Dichloro-phenyl)-acryloyl]-4-[3-(3-hydroxy-piperidin-1-yl)-propyl]-[1,4]diazepan-5-one] |
| 13 nM | 64 nM | O=C1NC(=O)C2(CCN(CCCN3CCN(C(=O)/C=C/c4ccc(Cl)c(Cl)c4)CCC3=O)CC2)N1 [Example 48, 8-(3-{4-[(E)-3-(3,4-Dichloro-phenyl)-acryloyl]-7-oxo-[1,4]diazepan-1-yl}-propyl)-1,3,8-triaza-spiro[4.5]decane-2,4-dione] |
| 77 nM | 14 nM | O=C(/C=C/c1ccc(Cl)c(Cl)c1)N1CCC(=O)N(CCCN2CCC(O)(c3ccccc3)CC2)CC1 [Example 59, 1-[(E)-3-(3,4-Dichloro-phenyl)-acryloyl]-4-[3-(4-hydroxy-4-phenyl-piperidin-1-yl)-propyl]-[1,4]diazepan-5-one] |
| – | 14 nM | CC1CC(O)CN(CCCN2CCN(C(=O)C=Cc3ccc(F)c(Cl)c3)CCC2=O)C1 (mixture of isomers) [Example 224, (rac,cis)-1-[(E)-3-(3-Chloro-4-fluoro-phenyl)-acryloyl]-4-[3-(3-hydroxy-5-methyl-piperidin-1-yl)-propyl]-[1,4]diazepan-5-one] |
